Data: US9643940B2, “Amine salt and crystals thereof” (ONO PHARMACEUTICAL CO., LTD., priority 2012, dated 2017)

Assays:
[1] = Examination of salts of Compound 17 for crystallization; format: physicochemical; settings: for State: salt of Compound 17 with the stated counter base, concentrated from methanol, triturated with various solvents; for State of the salt: salts of Compound 17 with the named bases
Protocol: Then, the mixture was concentrated under reduced pressure and trituration was conducted with using various solvents. For the examination, ethyl acetate, methyl t-butyl ether, n-hexane and the like were used as the solvents.

[2] = Chemical stability test (residual percentage by HPLC after storage); format: physicochemical; settings: for Residual percentage (%): relative to sample stored at −20° C., HPLC; for residual percentages: during storage under each condition
Protocol: With respect to Compound 17 and Crystalline forms A, B and C of Compound 18, chemical stability test was conducted according to the method and the condition below.
In a laboratory tube, approximately 1.5 to 3 mg of a test compound was weighed and stored under the condition below.
After storing, the residual percentage (%) of the sample stored under each condition relative to the area percentage of the main component in the sample stored at −20° C. was calculated with using HPLC. In addition, the appearance was observed by eye and compared with the sample stored at −20° C.
80° C.: One week, two weeks and one month
60° C.: Two weeks and one month
40° C.: Two weeks, one month, two months, four months and six months
25° C.-60% RH: Two months, four months and six months
5° C.: Two months, four months and six months
40° C.-75% RH (opened): Two weeks, one month, two months, four months and six months
25° C.-40% RH (opened): Two weeks, one month and two months
25° C.-60% RH (opened): Two weeks, one month and two months
25° C.-75% RH (opened): Two weeks, one month and two months
The samples to be compared with the samples above were stored at −20° C.
A sample to be evaluated was dissolved in a mixed solution of acetonitrile/20 mmol/L KH2PO4 aq. (pH3.0 with H3PO4) (1/1) and a solution of 1.0 mg/mL (concentration as a salt) was prepared.
Detector: Ultraviolet absorptiometer (measurement wavelength: 215 nm)
Column: CHIRALCEL OD-3R (150×4.6 mm, S-5 μm)
Column temperature: 25° C.
Mobile phase: Solution A: 20 mmol/L KH2PO4 aq. (pH3.0 with H3PO4), Solution B: CH3CN
Area measurement range: 35 minutes

bladder detrusor = test: Evaluation of the activity to contract the bladder detrusor (bladder strip specimens, Magnus system); format: tissue-based; settings: rat bladder strip; for Change of tension (%): contraction evoked by potassium chloride solution (7.5 mmol/L) set at 100%
Protocol: Rats were anesthetized with pentobarbital, followed by abdominal incision to remove the bladders and the urethras. The bladder bodies were cut in the longitudinal direction to prepare strip specimens with a size of about 10×3 mm. Additionally, each of the urethras was also cut in the longitudinal direction to prepare specimens with a size of about 10×3 mm. The prepared specimens were suspended in Krebs buffer (37° C., 5 mL), which was aerated with a mixed gas of 95% O2 and 5% CO2. The tension values of the specimens were measured using a Magnus system equipped with an isometric transducer and an amplifier, and the measured values were recorded on a computer via a data collection system. The specimens were suspended with a load of about 0.5 g. More than 1 hr later, potassium chloride (100 mmol/L) was added and the maximal contraction response was observed. After washing with Krebs buffer, the specimens were suspended with a load of about 0.5 g for stabilization. A potassium chloride solution (7.5 mmol/L) was added to induce the contraction of the specimens. After the contraction-inducing response was stabilized, the test compound was added in a cumulative manner and the response was observed before and after the treatment with the drug. The change of tension (%) of a test compound of each concentration was calculated with setting the contraction evoked by the addition of potassium chloride solution (mg) at 100%.

Row | Molecule | State [1] | State of the salt [1] | other results
1 | CNCCOC | Oily |  | 
2 | CNCCCO | Oily |  | 
3 | C#CCN(C)C | Oily |  | 
4 | c1ccc(CNCc2ccccc2)cc1 | Oily |  | 
5 | CCCCNCCC | Oily |  | 
6 | CCNCCCCO | Oily |  | 
7 | CNCCNC | Oily |  | 
8 | c1ccc2c(c1)CNC2 | Oily |  | 
9 | C=CCNCC=C | Oily |  | 
10 | C1CCCNCC1 | Oily |  | 
11 | C1=CCNCC1 | Oily |  | 
12 | CCc1ncc[nH]1 | Oily |  | 
13 | OC[C@@H]1CCCN1 | Oily |  | 
14 | CN1CCCCC1 | Oily |  | 
15 | COC1CCNCC1 | Oily |  | 
16 | OC1CCNCC1 [4-hydroxypiperidine] |  | amorphous oily substances | 
17 | CC1CCNCC1 [4-methylpiperidine] |  | amorphous oily substances | 
18 | OCCC1CCNCC1 [4-piperidineethanol] |  | amorphous oily substances | 

Row | Molecule | State [1] | State of the salt [1] | other results
19 | [Ca] [Calcium] | Oily | amorphous oily substances | 
20 | C[C@@](O)(C/C=C/[C@H]1CCC(=O)[C@@H]1CCSc1nc(C(=O)O)cs1)CCC(F)=C(F)F [Compound 17, 2-[(2-{(1R,5R)-2-oxo-5-[(1E,4S)-7,8,8-trifluoro-4-hydroxy-4-methyl-1,7-octadien-1-yl]cyclopentyl}ethyl)thio]-1,3-thiazole-4-carboxylic acid] |  |  | Residual percentage (%) ([2]; 40° C.-75% RH-one month): 58.6%; Residual percentage (%) ([2]; 40° C.-one month): 76.0%; Residual percentage (%) ([2]; 60° C.-one month): 60.4%; residual percentages [2]: decreased
21 | C[C@@](O)(C/C=C/[C@H]1CCC(=O)[C@@H]1CCSc1nc(C(=O)O)cs1)CCC(F)=C(F)F [Crystalline Form A, piperidin-4-ylmethanol 2-[(2-{(1R,5R)-2-oxo-5-[(1E,4S)-7,8,8-trifluoro-4-hydroxy-4-methyl-1,7-octadien-1-yl]cyclopentyl}ethyl)thio]-1,3-thiazole-4-carboxylate] |  |  | Residual percentage (%) ([2]; 40° C.-75% RH-one month): 92.0%; Residual percentage (%) ([2]; 40° C.-one month): 99.6%; Residual percentage (%) ([2]; 60° C.-one month): 98.6%
22 | C[C@@](O)(C/C=C/[C@H]1CCC(=O)[C@@H]1CCSc1nc(C(=O)O)cs1)CCC(F)=C(F)F [Crystalline Form B, piperidin-4-ylmethanol 2-[(2-{(1R,5R)-2-oxo-5-[(1E,4S)-7,8,8-trifluoro-4-hydroxy-4-methyl-1,7-octadien-1-yl]cyclopentyl}ethyl)thio]-1,3-thiazole-4-carboxylate] |  |  | Residual percentage (%) ([2]; 40° C.-75% RH-one month): 92.6%; Residual percentage (%) ([2]; 40° C.-one month): 99.6%; Residual percentage (%) ([2]; 60° C.-one month): 98.3%
23 | C[C@@](O)(C/C=C/[C@H]1CCC(=O)[C@@H]1CCSc1nc(C(=O)O)cs1)CCC(F)=C(F)F [Crystalline Form C, piperidin-4-ylmethanol 2-[(2-{(1R,5R)-2-oxo-5-[(1E,4S)-7,8,8-trifluoro-4-hydroxy-4-methyl-1,7-octadien-1-yl]cyclopentyl}ethyl)thio]-1,3-thiazole-4-carboxylate] |  |  | Residual percentage (%) ([2]; 40° C.-75% RH-one month): 97.5%; Residual percentage (%) ([2]; 40° C.-one month): 99.4%; Residual percentage (%) ([2]; 60° C.-one month): 97.9%
24 | C1CCC(NC2CCCCC2)CC1 [Dicyclohexylamine] | Oily | amorphous oily substances | 
25 | OCCNCCO [Diethanolamine] | Oily | amorphous oily substances | 
26 | [Mg] [Magnesium] | Oily | amorphous oily substances | 
27 | [K+] [Potassium] | Oily | amorphous oily substances | 
28 | CCN(CC)CC [Triethylamine] | Oily | amorphous oily substances | 
29 | OCCC1CCNCC1 [drawing 22] | Oily |  | 
30 | CC1CCNCC1 [drawing 23] | Oily |  | 
31 | OC1CCNCC1 [drawing 24] | Oily |  | 
32 | CC(C)(C)N [t-Butylamine] | Oily |  | 
33 | Arginine | Oily | amorphous oily substances | 
34 | Lysine | Oily | amorphous oily substances | 
35 | Piperidin-4-ylmethanol 2-[(2-{(1R,5R)-2-oxo-5-[(1E,4S)-7,8,8-trifluoro-4-hydroxy-4-methyl-1,7-octadien-1-yl]cyclopentyl}ethyl)thio]-1,3-thiazole-4-carboxylate [Compound 18] | Crystalline solid |  | residual percentages [2]: ≥ 90%; Change of tension (%) (bladder detrusor; 1 nmol/L): 5.97%; Change of tension (%) (bladder detrusor; 10 nmol/L): 54.35%; Change of tension (%) (bladder detrusor; 100 nmol/L): 177.91%; Change of tension (%) (bladder detrusor; 1 μmol/L): 245.91%; Effect on the bladder detrusor (in words) (bladder detrusor): contracted the bladder detrusor
36 | Sodium | Oily | amorphous oily substances | 
